These results are taken from BindingDB's records for doi:10.1021/jm020211+ (National Institute of Diabetes and Digestive and Kidney …, 2002).

This experiment has as its target T1, Adenosine receptor A3 (Homo sapiens, UniProt P0DMS8).
T1 sequence (P0DMS8 whole entry): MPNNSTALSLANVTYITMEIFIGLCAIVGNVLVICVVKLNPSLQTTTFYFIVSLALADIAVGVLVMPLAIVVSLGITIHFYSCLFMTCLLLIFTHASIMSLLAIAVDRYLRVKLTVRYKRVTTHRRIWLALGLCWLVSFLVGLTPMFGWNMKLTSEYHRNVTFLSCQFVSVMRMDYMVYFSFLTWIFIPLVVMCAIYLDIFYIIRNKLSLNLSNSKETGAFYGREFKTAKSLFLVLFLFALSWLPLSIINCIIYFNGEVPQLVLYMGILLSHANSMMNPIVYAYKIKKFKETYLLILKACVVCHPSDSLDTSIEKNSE
In words: Effect on forskolin-stimulated cyclic AMP production in intact chinese hamster ovary (CHO) cell expressing the human Adenosine A3 receptor.

Broadly, the EC50 is the concentration needed to bring the measured effect to its halfway point. The low end stands for greater potency, the high end for weaker potency. In turn, `Nc1nc(Cl)nc2c1ncn2C1C(O)C(O)C2(CO)CC12` (stereo unspecified) [4-(6-Amino-2-chloro-purin-9-yl)-1-hydroxymethyl-bicyclo[3.1.0]hexane-2,3-diol] showed an EC50 of 803 nM.
